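Interpolation was linear, between the two tested concentrations surrounding the appropriate level; five concentrations were tested over 48 hours in 96-well plates. TGI: total growth inhibition.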
Legend:
Assay in all cases: NCI anticancer screen, dose series, 48 h
HOP-92 NSCLC = tested on: HOP-92 NSCLC
SK-MEL-5 melanoma = tested on: SK-MEL-5 melanoma
SK-MEL-28 melanoma = tested on: SK-MEL-28 melanoma
CAKI-1 renal = tested on: CAKI-1 renal
EKVX NSCLC = tested on: EKVX NSCLC
COLO 205 colon = tested on: COLO 205 colon
SK-OV-3 ovarian = tested on: SK-OV-3 ovarian
SK-MEL-2 melanoma = tested on: SK-MEL-2 melanoma
NCI/ADR-RES ovarian = tested on: NCI/ADR-RES ovarian
HS 578T breast = tested on: HS 578T breast
PC-3 prostate = tested on: PC-3 prostate
SR leukemia = tested on: SR leukemia
SNB-19 CNS = tested on: SNB-19 CNS
K-562 leukemia = tested on: K-562 leukemia
RPMI-8226 leukemia = tested on: RPMI-8226 leukemia
MDA-MB-435 = tested on: MDA-MB-435
LOX IMVI melanoma = tested on: LOX IMVI melanoma
OVCAR-4 ovarian = tested on: OVCAR-4 ovarian
T-47D breast = tested on: T-47D breast
OVCAR-3 ovarian = tested on: OVCAR-3 ovarian
DU-145 prostate = tested on: DU-145 prostate
RXF 393 renal = tested on: RXF 393 renal
OVCAR-5 ovarian = tested on: OVCAR-5 ovarian
SF-268 CNS = tested on: SF-268 CNS
M14 melanoma = tested on: M14 melanoma
BT-549 breast = tested on: BT-549 breast
ACHN renal = tested on: ACHN renal
SF-539 CNS = tested on: SF-539 CNS
U251 CNS = tested on: U251 CNS
786-0 renal = tested on: 786-0 renal
TK-10 renal = tested on: TK-10 renal
HCC-2998 colon = tested on: HCC-2998 colon
HL-60(TB) leukemia = tested on: HL-60(TB) leukemia
SF-295 CNS = tested on: SF-295 CNS
SN12C renal = tested on: SN12C renal
UO-31 renal = tested on: UO-31 renal
NCI-H460 lung = tested on: NCI-H460 lung
KM12 colon = tested on: KM12 colon
MALME-3M melanoma = tested on: MALME-3M melanoma
SW-620 colon = tested on: SW-620 colon
IGROV1 ovarian = tested on: IGROV1 ovarian
HCT-15 colon = tested on: HCT-15 colon
UACC-257 melanoma = tested on: UACC-257 melanoma
MDA-MB-231 breast = tested on: MDA-MB-231 breast
MCF7 breast = tested on: MCF7 breast
CCRF-CEM leukemia = tested on: CCRF-CEM leukemia
HT29 colon = tested on: HT29 colon
NCI-H23 lung = tested on: NCI-H23 lung
HOP-62 NSCLC = tested on: HOP-62 NSCLC
SNB-75 CNS = tested on: SNB-75 CNS
OVCAR-8 ovarian = tested on: OVCAR-8 ovarian
HCT-116 colon = tested on: HCT-116 colon
NCI-H226 lung = tested on: NCI-H226 lung
MOLT-4 leukemia = tested on: MOLT-4 leukemia
NCI-H522 lung = tested on: NCI-H522 lung
MDA-N = tested on: MDA-N
A549 NSCLC = tested on: A549 NSCLC
UACC-62 melanoma = tested on: UACC-62 melanoma

## Cn1c2ccccc2c(=NNc2ccc(S(N)(=O)=O)cc2)c2ccccc21
HOP-92 NSCLC
  TGI: 35.8 µM
SK-MEL-5 melanoma
  TGI: 22.5 µM
SK-MEL-28 melanoma
  TGI: > 50 µM
CAKI-1 renal
  TGI: > 50 µM
EKVX NSCLC
  TGI: > 50 µM
COLO 205 colon
  TGI: > 50 µM
SK-OV-3 ovarian
  TGI: > 50 µM
SK-MEL-2 melanoma
  TGI: 34.3 µM
NCI/ADR-RES ovarian
  TGI: > 50 µM
HS 578T breast
  TGI: > 50 µM
PC-3 prostate
  TGI: > 50 µM
SR leukemia
  TGI: 25.6 µM
SNB-19 CNS
  TGI: > 50 µM
K-562 leukemia
  TGI: 40.4 µM
RPMI-8226 leukemia
  TGI: > 50 µM
MDA-MB-435
  TGI: > 50 µM
LOX IMVI melanoma
  TGI: 38.1 µM
OVCAR-4 ovarian
  TGI: > 50 µM
T-47D breast
  TGI: 34.8 µM
OVCAR-3 ovarian
  TGI: > 50 µM
DU-145 prostate
  TGI: > 50 µM
RXF 393 renal
  TGI: 43.7 µM
OVCAR-5 ovarian
  TGI: > 50 µM
SF-268 CNS
  TGI: > 50 µM
M14 melanoma
  TGI: > 50 µM
BT-549 breast
  TGI: > 50 µM
ACHN renal
  TGI: 29 µM
SF-539 CNS
  TGI: > 50 µM
U251 CNS
  TGI: > 50 µM
786-0 renal
  TGI: > 50 µM
TK-10 renal
  TGI: > 50 µM
HCC-2998 colon
  TGI: 38.7 µM
HL-60(TB) leukemia
  TGI: 32 µM
SF-295 CNS
  TGI: > 50 µM
SN12C renal
  TGI: > 50 µM
UO-31 renal
  TGI: 41.1 µM
NCI-H460 lung
  TGI: 34.3 µM
KM12 colon
  TGI: > 50 µM
MALME-3M melanoma
  TGI: 43.2 µM
SW-620 colon
  TGI: > 50 µM
IGROV1 ovarian
  TGI: > 50 µM
HCT-15 colon
  TGI: > 50 µM
UACC-257 melanoma
  TGI: 49.8 µM
MDA-MB-231 breast
  TGI: > 50 µM
MCF7 breast
  TGI: 43.1 µM
CCRF-CEM leukemia
  TGI: > 50 µM
HT29 colon
  TGI: > 50 µM
NCI-H23 lung
  TGI: > 50 µM
HOP-62 NSCLC
  TGI: > 50 µM
SNB-75 CNS
  TGI: 46.6 µM
OVCAR-8 ovarian
  TGI: > 50 µM
HCT-116 colon
  TGI: > 50 µM
NCI-H226 lung
  TGI: 48.4 µM
MOLT-4 leukemia
  TGI: 26.9 µM
NCI-H522 lung
  TGI: > 50 µM
MDA-N
  TGI: > 50 µM
A549 NSCLC
  TGI: > 50 µM
UACC-62 melanoma
  TGI: > 50 µM
